# Laboratory results published in patent US20200399262A1, “COMPOUNDS FOR INHIBITING PROTEIN DEGRADATION AND METHODS OF USE THEREOF IN THE TREATMENT OF CANCER” (PI Therapeutics Ltd, priority 2018, published 2020).
# Columns and labels:
# Format in all cases: cell-based
# [1] = system: OVCAR-4; experiment: NCI60 screen cytotoxicity; details: Homo sapiens, Ovarian cancer, read-out: Compound B1 EC50
# [2] = system: HS-578T; experiment: NCI60 screen cytotoxicity; details: Homo sapiens, Breast cancer, read-out: Compound B1 EC50
# [3] = system: SF-268; experiment: NCI60 screen cytotoxicity; details: Homo sapiens, CNS, read-out: Compound B1 EC50
# [4] = system: A-549; experiment: NCI60 screen cytotoxicity; details: Homo sapiens, A549, Lung cancer, read-out: Compound B1 EC50
# [5] = system: NCI-H460; experiment: NCI60 screen cytotoxicity; details: Homo sapiens, Lung cancer, read-out: Compound B1 EC50
# [6] = system: PC-3; experiment: NCI60 screen cytotoxicity; details: Homo sapiens, Prostate cancer, read-out: Compound B1 EC50
# [7] = system: NCI-H23; experiment: NCI60 screen cytotoxicity; details: Homo sapiens, Lung cancer, read-out: Compound B1 EC50
# [8] = system: NCI-H322M; experiment: NCI60 screen cytotoxicity; details: Homo sapiens, Lung cancer, read-out: Compound B1 EC50
# [9] = system: RS4-11; experiment: Cell viability panel, ATPlite 1Step; details: Homo sapiens, B acute lymphoblastic leukemia, 72 h exposure, read-out: Compound EC50
# Outline: (§1)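 CyQUANT Direct lines were pre-seeded 24 h at 5,000-40,000 cells/well in RPMI 1640 with 10% FBS, dosed 0.04-1 μM for 48 h at 37° C., normalized to DMSO, EC50 via Tz/C/Ti growth formula. ATPlite lines got 8 doses, 0.04-32 μM, for 72 h.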
# [10] = system: 786-O; experiment: Cell viability panel, ATPlite 1Step; details: Homo sapiens, 786-0, Renal cell carcinoma, 72 h exposure, read-out: Compound EC50
# Outline: as §1
# [11] = system: THP-1; experiment: Cell viability panel, ATPlite 1Step; details: Homo sapiens, Acute monocytic leukemia, 72 h exposure, read-out: Compound EC50
# Outline: as §1
# [12] = system: MOLT-4; experiment: Cell viability panel, ATPlite 1Step; details: Homo sapiens, T acute lymphoblastic leukemia, 72 h exposure, read-out: Compound EC50
# Outline: as §1
# [13] = system: HT-1080; experiment: Cell viability panel, ATPlite 1Step; details: Homo sapiens, Fibrosarcoma, 72 h exposure, read-out: Compound EC50
# Outline: as §1
# [14] = system: SK-N-AS; experiment: Cell viability panel, ATPlite 1Step; details: Homo sapiens, Neuroblastoma, 72 h exposure, read-out: Compound EC50
# Outline: as §1
# [15] = system: SW48; experiment: Cell viability panel, ATPlite 1Step; details: Homo sapiens, Colon adenocarcinoma, 72 h exposure, read-out: Compound EC50
# Outline: as §1
# [16] = system: SW872; experiment: Cell viability panel, ATPlite 1Step; details: Homo sapiens, Liposarcoma, 72 h exposure, read-out: Compound EC50
# Outline: as §1
# [17] = system: LoVo; experiment: Cell viability panel, ATPlite 1Step; details: Homo sapiens, Colon adenocarcinoma, 72 h exposure, read-out: Compound EC50
# Outline: as §1
# [18] = system: CCRF-CEM; experiment: Cell viability panel, ATPlite 1Step; details: Homo sapiens, T acute lymphoblastic leukemia, 72 h exposure, read-out: Compound EC50
# Outline: as §1
# [19] = system: SUP-T1; experiment: Cell viability panel, ATPlite 1Step; details: Homo sapiens, T lymphoblastic lymphoma, 72 h exposure, read-out: Compound EC50
# Outline: as §1
# [20] = system: A-704; experiment: Cell viability panel, ATPlite 1Step; details: Homo sapiens, A704, Renal cell carcinoma, 72 h exposure, read-out: Compound EC50
# Outline: as §1
# [21] = system: NCI-H661; experiment: Cell viability panel, ATPlite 1Step; details: Homo sapiens, Large cell lung carcinoma, 72 h exposure, read-out: Compound EC50
# Outline: as §1
# [22] = system: BT-549; experiment: Cell viability panel, ATPlite 1Step; details: Homo sapiens, Invasive ductal carcinoma, 72 h exposure, read-out: Compound EC50
# Outline: as §1
# [23] = system: KG-1; experiment: Cell viability panel, ATPlite 1Step; details: Homo sapiens, Acute myeloid leukemia, 72 h exposure, read-out: Compound EC50
# Outline: as §1
# [24] = system: DLD-1; experiment: Cell viability panel, ATPlite 1Step; details: Homo sapiens, Colon adenocarcinoma, 72 h exposure, read-out: Compound EC50
# Outline: as §1
# [25] = system: PA-1; experiment: Cell viability panel, ATPlite 1Step; details: Homo sapiens, Ovarian mixed germ cell tumor, 72 h exposure, read-out: Compound EC50
# Outline: as §1
# [26] = system: KATO III; experiment: Cell viability panel, ATPlite 1Step; details: Homo sapiens, Signet ring cell gastric adenocarcinoma, 72 h exposure, read-out: Compound EC50
# Outline: as §1
# [27] = system: VA-ES-BJ; experiment: Cell viability panel, ATPlite 1Step; details: Epithelioid sarcoma, 72 h exposure, read-out: Compound EC50
# Outline: as §1
structure (smiles),measurement,setting,value
CN(C)CC(=O)NCC(=O)N1C/C(=C\c2ccc(C#N)cc2)C(=O)/C(=C/c2ccc(C#N)cc2)C1 [Compound B1],EC50,[1],300 to 1000 nM
same,EC50,[2],300 to 1000 nM
same,EC50,[3],< 300 nM
same,EC50,[4],300 to 1000 nM
same,EC50,[5],< 300 nM
same,EC50,[6],< 300 nM
same,EC50,[7],< 300 nM
same,EC50,[8],300 to 1000 nM
CN(C)CCCS(=O)(=O)N1C/C(=C\c2ccc(C#N)cc2)C(=O)/C(=C/c2ccc(C#N)cc2)C1 [Compound AA],EC50,[9],< 300 nM
same,EC50,[10],< 300 nM
same,EC50,[11],300 to 1000 nM
same,EC50,[12],< 300 nM
same,EC50,[13],< 300 nM
same,EC50,[14],< 300 nM
same,EC50,[15],300 to 1000 nM
same,EC50,[16],< 300 nM
same,EC50,[17],< 300 nM
same,EC50,[18],< 300 nM
same,EC50,[19],< 300 nM
same,EC50,[20],300 to 1000 nM
same,EC50,[21],300 to 1000 nM
same,EC50,[22],< 300 nM
same,EC50,[23],< 300 nM
same,EC50,[24],< 300 nM
same,EC50,[25],< 300 nM
same,EC50,[26],300 to 1000 nM
same,EC50,[27],< 300 nM
